Numbered stars: 1 amine (or outer) side, 2 acyl side, 3 side chain; on linkers, the order of the positions; unused ones are H or OH. Bridge positions count the residues as written; N and C are the ends. Square brackets hold non-standard residues; d marks the D form. Side chains are listed from the residue outwards. Peptide text beside a SMILES is read from it. * marks the point of attachment. γGlu = O=C(O)[C@H](CCC(=O)[*:2])N[*:1]; Palmitoyl = CCCCCCCCCCCCCCCC(=O)*; Aib = CC(C)(N)C(=O)O

The nature of data set [1]: Pharmacokinetic screening in mouse plasma after subcutaneous administration. The format is in vivo. To be noted: sc, mice, 100 nmol/kg s.c., * = only two time points used for calculation. On the procedure: Mice were dosed 100 nmol/kg subcutaneously (s.c.). The mice were sacrificed and the blood collected at the following time points; 0.5, 2, 4, 6, 16 and 24 h. Plasma samples were analyzed using protein precipitation, followed by solid phase extraction (SPE) and liquid chromatography mass spectrometry (LC-MS).
Pharmacokinetic profiles were determined for various acylated compounds.

A short description of data set [2]: Body weight gain in high fat fed C57BL/6J mice (10 days). The data set is classed as in vivo. To be noted: short term high fat-fed C57BL/6J mice; for body weight gain, high dose: 5 nmol/kg b.i.d. s.c. As for the experimental part: C57Bl/6J male mice, 6 weeks old, were acclimatized in their new environment for 4 weeks with free access to high fat diet (HFD) (D12492, Research Diet Inc., New Brunswick, USA) and water. The animals were injected s.c. with 100 μl vehicle for a period of three days to acclimatize the animals to handling and injections, prior to initiation of peptide treatment. […] Throughout the study, body weights were recorded daily and used to administer the body weight-corrected doses of peptide. All animals were sacrificed on the same day by cervical dislocation.
C57Bl/6J male mice on high fat diet (HFD) were treated (b.i.d.; s.c.) (0.5 and 5 nmol/kg) or vehicle. Body weights were recorded daily and used to administer the body weight-corrected doses of peptide throughout the study. Data are shown as mean±SEM in FIG. 7.

`CCCCCCCCCCCCCCCC(=O)N[C@@H](CCC(=O)NCCCC[C@H](NC(=O)[C@H](CC(=O)O)NC(=O)[C@H](CC(C)C)NC(=O)[C@H](Cc1ccc(O)cc1)NC(=O)[C@H](CCCCN)NC(=O)[C@H](CO)NC(=O)[C@H](Cc1ccc(O)cc1)NC(=O)[C@H](CC(=O)O)NC(=O)[C@H](CO)NC(=O)[C@@H](NC(=O)[C@H](Cc1ccccc1)NC(=O)[C@@H](NC(=O)CNC(=O)[C@H](CCC(N)=O)NC(=O)[C@H](CO)NC(=O)[C@@H](N)Cc1c[nH]cn1)[C@@H](C)O)[C@@H](C)O)C(=O)N[C@@H](CCCCN)C(=O)N[C@@H](C)C(=O)N[C@@H](C)C(=O)N[C@@H](Cc1c[nH]cn1)C(=O)N[C@@H](CC(=O)O)C(=O)N[C@@H](Cc1ccccc1)C(=O)N[C@H](C(=O)N[C@@H](CCC(=O)O)C(=O)N[C@@H](Cc1c[nH]c2ccccc12)C(=O)N[C@@H](CC(C)C)C(=O)N[C@@H](CC(C)C)C(=O)N[C@@H](CCCNC(=N)N)C(=O)N[C@@H](C)C(N)=O)C(C)C)C(=O)O` [Compound 2] (H-HSQGTFTSDYSKYLDK([γGlu-Palmitoyl])KAAHDFVEWLLRA-NH2): in data set [1], the half-life (usually the time in which the quantity being followed falls by half) is 5.8 h.

Turning to `CCCCCCCCCCCCCCCC(=O)N[C@@H](CCC(=O)NCCCC[C@H](NC(=O)[C@H](CO)NC(=O)[C@H](CC(=O)O)NC(=O)[C@H](CC(C)C)NC(=O)[C@H](Cc1ccc(O)cc1)NC(=O)[C@H](CCCCN)NC(=O)[C@H](CO)NC(=O)[C@H](Cc1ccc(O)cc1)NC(=O)[C@H](CC(=O)O)NC(=O)[C@H](CO)NC(=O)[C@@H](NC(=O)[C@H](Cc1ccccc1)NC(=O)[C@@H](NC(=O)CNC(=O)[C@H](CCC(N)=O)NC(=O)[C@H](CO)NC(=O)[C@@H](N)Cc1c[nH]cn1)[C@@H](C)O)[C@@H](C)O)C(=O)N[C@@H](C)C(=O)N[C@@H](C)C(=O)N[C@@H](Cc1c[nH]cn1)C(=O)N[C@@H](CC(=O)O)C(=O)N[C@@H](Cc1ccccc1)C(=O)N[C@H](C(=O)N[C@@H](CCC(=O)O)C(=O)N[C@@H](Cc1c[nH]c2ccccc12)C(=O)N[C@@H](CC(C)C)C(=O)N[C@@H](CC(C)C)C(=O)N[C@@H](CCCNC(=N)N)C(=O)N[C@@H](C)C(N)=O)C(C)C)C(=O)O` [Compound 3] (H-HSQGTFTSDYSKYLDSK([γGlu-Palmitoyl])AAHDFVEWLLRA-NH2), in data set [2], the “body weight gain, high dose” value was “significantly decreased body weight gain at the high dose”.

On to `CCCCCCCCCCCCCCCC(=O)N[C@@H](CCC(=O)NCCCC[C@H](NC(=O)[C@H](C)NC(=O)[C@H](C)NC(=O)[C@H](CCCCN)NC(=O)[C@H](CO)NC(=O)[C@H](CC(=O)O)NC(=O)[C@H](CC(C)C)NC(=O)[C@H](Cc1ccc(O)cc1)NC(=O)[C@H](CCCCN)NC(=O)[C@H](CO)NC(=O)[C@H](Cc1ccc(O)cc1)NC(=O)[C@H](CC(=O)O)NC(=O)[C@H](CO)NC(=O)[C@@H](NC(=O)[C@H](Cc1ccccc1)NC(=O)[C@@H](NC(=O)CNC(=O)[C@H](CCC(N)=O)NC(=O)[C@H](CO)NC(=O)[C@@H](N)Cc1c[nH]cn1)[C@@H](C)O)[C@@H](C)O)C(=O)N[C@@H](CC(=O)O)C(=O)N[C@@H](Cc1ccccc1)C(=O)N[C@H](C(=O)N[C@@H](CCC(=O)O)C(=O)N[C@@H](Cc1c[nH]c2ccccc12)C(=O)N[C@@H](CC(C)C)C(=O)N[C@@H](CC(C)C)C(=O)N[C@@H](CCCNC(=N)N)C(=O)N[C@@H](C)C(N)=O)C(C)C)C(=O)O` [Compound 4] (H-HSQGTFTSDYSKYLDSKAAK([γGlu-Palmitoyl])DFVEWLLRA-NH2), for which the half-life in data set [1] was 2 h.

For `CCCCCCCCCCCCCCCC(=O)N[C@@H](CCC(=O)NCCCC[C@H](NC(=O)[C@H](CC(C)C)NC(=O)[C@H](Cc1c[nH]c2ccccc12)NC(=O)[C@H](CCC(=O)O)NC(=O)[C@@H](NC(=O)[C@H](Cc1ccccc1)NC(=O)[C@H](CC(=O)O)NC(=O)[C@H](Cc1c[nH]cn1)NC(=O)[C@H](C)NC(=O)[C@H](C)NC(=O)[C@H](CCCCN)NC(=O)[C@H](CO)NC(=O)[C@H](CC(=O)O)NC(=O)[C@H](CC(C)C)NC(=O)[C@H](Cc1ccc(O)cc1)NC(=O)[C@H](CCCCN)NC(=O)[C@H](CO)NC(=O)[C@H](Cc1ccc(O)cc1)NC(=O)[C@H](CC(=O)O)NC(=O)[C@H](CO)NC(=O)[C@@H](NC(=O)[C@H](Cc1ccccc1)NC(=O)[C@@H](NC(=O)CNC(=O)[C@H](CCC(N)=O)NC(=O)[C@H](CO)NC(=O)[C@@H](N)Cc1c[nH]cn1)[C@@H](C)O)[C@@H](C)O)C(C)C)C(=O)N[C@@H](CCCNC(=N)N)C(=O)N[C@@H](C)C(N)=O)C(=O)O` [Compound 5] (H-HSQGTFTSDYSKYLDSKAAHDFVEWLK([γGlu-Palmitoyl])RA-NH2), the half-life in data set [1] is 5.3 h.

Regarding `CCCCCCCCCCCCCCCC(=O)N[C@@H](CCC(=O)NCCCC[C@H](NC(=O)[C@H](CC(C)C)NC(=O)[C@H](CC(C)C)NC(=O)[C@H](Cc1c[nH]c2ccccc12)NC(=O)[C@H](CCC(=O)O)NC(=O)[C@@H](NC(=O)[C@H](Cc1ccccc1)NC(=O)[C@H](CC(=O)O)NC(=O)[C@H](Cc1c[nH]cn1)NC(=O)[C@H](C)NC(=O)[C@H](C)NC(=O)[C@H](CCCCN)NC(=O)[C@H](CO)NC(=O)[C@H](CC(=O)O)NC(=O)[C@H](CC(C)C)NC(=O)[C@H](Cc1ccc(O)cc1)NC(=O)[C@H](CCCCN)NC(=O)[C@H](CO)NC(=O)[C@H](Cc1ccc(O)cc1)NC(=O)[C@H](CC(=O)O)NC(=O)[C@H](CO)NC(=O)[C@@H](NC(=O)[C@H](Cc1ccccc1)NC(=O)[C@@H](NC(=O)CNC(=O)[C@H](CCC(N)=O)NC(=O)[C@H](CO)NC(=O)[C@@H](N)Cc1c[nH]cn1)[C@@H](C)O)[C@@H](C)O)C(C)C)C(=O)N[C@@H](C)C(N)=O)C(=O)O` [Compound 6] (H-HSQGTFTSDYSKYLDSKAAHDFVEWLLK([γGlu-Palmitoyl])A-NH2), in data set [1], the half-life is 4.8 h. For the same compound, the “body weight gain, low dose” value in data set [2] (0.5 nmol/kg b.i.d. s.c.) is listed as “significantly decreased body weight gain”. For the same compound, in data set [2], the “body weight gain, high dose” value is reported as “only at the low dose”.

In the case of `CCCCCCCCCCCCCCCC(=O)N[C@@H](CCC(=O)NCCCC[C@H](NC(=O)[C@H](CO)NC(=O)[C@H](CC(=O)O)NC(=O)[C@H](CC(C)C)NC(=O)[C@H](Cc1ccc(O)cc1)NC(=O)[C@H](CCCCN)NC(=O)[C@H](CO)NC(=O)[C@H](Cc1ccc(O)cc1)NC(=O)[C@H](CC(=O)O)NC(=O)[C@H](CO)NC(=O)[C@@H](NC(=O)[C@H](Cc1ccccc1)NC(=O)[C@@H](NC(=O)CNC(=O)[C@H](CCC(N)=O)NC(=O)C(C)(C)NC(=O)[C@@H](N)Cc1c[nH]cn1)[C@@H](C)O)[C@@H](C)O)C(=O)N[C@@H](C)C(=O)N[C@@H](C)C(=O)N[C@@H](CCCNC(=N)N)C(=O)N[C@@H](CC(=O)O)C(=O)N[C@@H](Cc1ccccc1)C(=O)N[C@H](C(=O)N[C@@H](C)C(=O)N[C@@H](Cc1c[nH]c2ccccc12)C(=O)N[C@@H](CC(C)C)C(=O)N[C@@H](CC(C)C)C(=O)N[C@@H](CCCNC(=N)N)C(=O)N[C@@H](C)C(N)=O)C(C)C)C(=O)O` [Compound 9] (H-H[Aib]QGTFTSDYSKYLDSK([γGlu-Palmitoyl])AARDFVAWLLRA-NH2), in data set [1], the half-life was 2.4 h.

Consider `CCCCCCCCCCCCCCCC(=O)N[C@@H](CCC(=O)NCCCC[C@H](NC(=O)[C@H](CC(C)C)NC(=O)[C@H](CC(C)C)NC(=O)[C@H](Cc1c[nH]c2ccccc12)NC(=O)[C@H](CCC(=O)O)NC(=O)[C@@H](NC(=O)[C@H](Cc1ccccc1)NC(=O)[C@H](CC(=O)O)NC(=O)[C@H](Cc1c[nH]cn1)NC(=O)[C@H](C)NC(=O)[C@H](C)NC(=O)[C@H](CCCCN)NC(=O)[C@H](CO)NC(=O)[C@H](CC(=O)O)NC(=O)[C@H](CC(C)C)NC(=O)[C@H](Cc1ccc(O)cc1)NC(=O)[C@H](CCCCN)NC(=O)[C@H](CO)NC(=O)[C@H](Cc1ccc(O)cc1)NC(=O)[C@H](CC(=O)O)NC(=O)[C@H](CO)NC(=O)[C@@H](NC(=O)[C@H](Cc1ccccc1)NC(=O)[C@@H](NC(=O)CNC(=O)[C@H](CCC(N)=O)NC(=O)C(C)(C)NC(=O)[C@@H](N)Cc1c[nH]cn1)[C@@H](C)O)[C@@H](C)O)C(C)C)C(=O)N[C@@H](C)C(N)=O)C(=O)O` [Compound 12] (H-H[Aib]QGTFTSDYSKYLDSKAAHDFVEWLLK([γGlu-Palmitoyl])A-NH2), for which, in data set [1], the half-life was 6 h. In data set [2], the “body weight gain, high dose” value is “significantly decreased body weight gain at the high dose”.

Take `CCCCCCCCCCCCCCCC(=O)N[C@@H](CCC(=O)NCCCC[C@H](NC(=O)[C@H](CO)NC(=O)[C@H](CC(=O)O)NC(=O)[C@H](CC(C)C)NC(=O)[C@H](Cc1ccc(O)cc1)NC(=O)[C@H](CCCCN)NC(=O)[C@H](CO)NC(=O)[C@H](Cc1ccc(O)cc1)NC(=O)[C@H](CC(=O)O)NC(=O)[C@H](CO)NC(=O)[C@@H](NC(=O)[C@H](Cc1ccccc1)NC(=O)[C@@H](NC(=O)CNC(=O)[C@H](CCC(N)=O)NC(=O)C(C)(C)NC(=O)[C@@H](N)Cc1c[nH]cn1)[C@@H](C)O)[C@@H](C)O)C(=O)N[C@@H](C)C(=O)N[C@@H](C)C(=O)N[C@@H](Cc1c[nH]cn1)C(=O)N[C@@H](CC(=O)O)C(=O)N[C@@H](Cc1ccccc1)C(=O)N[C@H](C(=O)N[C@H]1CCC(=O)NCCCC[C@@H](C(=O)N[C@@H](C)C(N)=O)NC(=O)[C@H](CC(C)C)NC(=O)[C@H](CC(C)C)NC(=O)[C@H](Cc2c[nH]c3ccccc23)NC1=O)C(C)C)C(=O)O` [Compound 13] (H-H[Aib]QGTFTSDYSKYLDSK([γGlu-Palmitoyl])AAHDFVEWLLKA-NH2; lactam 24-28): in data set [1], the half-life is 6.4 h.
